Measured values: US11180504B2 (ORCHID PHARMA LTD., priority 2016, dated 2021)
In brackets after ≈: the same amount, converted by molar mass.

How the values were obtained:
[1] = system: extended spectrum β lactamase (ESBL) SHV18 producing Klebsiella pneumoniae; assay: MIC by broth micro-dilution (CLSI), ESBL SHV18 producing K. pneumoniae; format: cell-based; settings: Klebsiella pneumoniae, ATCC700603, 22 h, ESBL +ve (SHV-18) K. pneumoniae ATCC700603; read-out: MIC
[2] = system: carbapenem sensitive Pseudomonas aeruginosa; assay: MIC by broth micro-dilution (CLSI), carbapenem sensitive P. aeruginosa; format: cell-based; settings: Pseudomonas aeruginosa, ATCC27853, Meropenem susceptible P. aeruginosa ATCC27853; read-out: MIC
[3] = system: carbapenem sensitive Escherichia coli; assay: MIC by broth micro-dilution (CLSI), carbapenem sensitive E. coli; format: cell-based; settings: Escherichia coli, ATCC25922, ESBL −ve E. coli ATCC25922; read-out: MIC
[4] = system: carbapenemase producing K. pneumoniae; assay: MIC by broth micro-dilution (CLSI), carbapenemase producing K. pneumoniae; format: cell-based, Klebsiella pneumoniae; settings: Klebsiella pneumoniae, ATCCBAA1705, KPC-2 K. pneumoniae ATCC BAA-1705; read-out: MIC
[5] = system: methicillin-sensitive Staphylococcus aureus; assay: MIC by broth micro-dilution (CLSI), methicillin-sensitive S. aureus; format: cell-based; settings: Staphylococcus aureus, ATCC 29213 / MSSA, MSSA S. aureus ATCC29213; read-out: MIC

| Structure (SMILES) | MIC [1] [µg/mL] | MIC [2] [µg/mL] | MIC [3] [µg/mL] | MIC [4] [µg/mL] | MIC [5] [µg/mL] |
| --- | --- | --- | --- | --- | --- |
| C[C@@H](NC(=O)[C@@H](N)Cc1ccccc1)[C@H]1C(=O)N2C(C(=O)O)=C(S[C@@H]3CN[C@H](C(=O)N(C)C)C3)[C@H](C)[C@H]12 [Example 71] | 128 (≈ 242 µM) | > 128 | 16 (≈ 30.2 µM) | 64 (≈ 121 µM) | 8 (≈ 15.1 µM) |
| CNCC(=O)N[C@H](C)[C@H]1C(=O)N2C(C(=O)O)=C(S[C@@H]3CN[C@H](C(=O)N4CC[C@@H](CN)C4)C3)[C@H](C)[C@H]12 [Example 220] | 2 (≈ 3.93 µM) | 2 (≈ 3.93 µM) | 1 (≈ 1.97 µM) | 2 (≈ 3.93 µM) | 32 (≈ 62.9 µM) |
| C[C@@H](NC(=O)CNS(C)(=O)=O)[C@H]1C(=O)N2C(C(=O)O)=C(S[C@@H]3CN[C@H](C(=O)N(C)C)C3)[C@H](C)[C@H]12 [Example 70] | 8 (≈ 15.5 µM) | > 128 | 4 (≈ 7.73 µM) | 16 (≈ 30.9 µM) | 16 (≈ 30.9 µM) |
| CNCC(=O)N[C@H](C)[C@H]1C(=O)N2C(C(=O)O)=C(S[C@@H]3CN[C@H](C(=O)N4CC[C@H](n5cc(CN)nn5)C4)C3)[C@H](C)[C@H]12 [Example 178] | 4 (≈ 6.95 µM) | 4 (≈ 6.95 µM) | 2 (≈ 3.47 µM) | 4 (≈ 6.95 µM) | 32 (≈ 55.6 µM) |
| C[C@@H](NCC(=O)O)[C@H]1C(=O)N2C(C(=O)O)=C(S[C@@H]3CN[C@H](C(=O)N(C)C)C3)[C@H](C)[C@H]12 [Example 99] | 16 (≈ 36.3 µM) | 16 (≈ 36.3 µM) | 64 (≈ 145 µM) | 64 (≈ 145 µM) | 128 (≈ 291 µM) |
| C[C@@H](NC(=O)C(F)F)[C@H]1C(=O)N2C(C(=O)O)=C(S[C@@H]3CN[C@H](C(=O)N4C[C@@H](N)C[C@H]4CNS(N)(=O)=O)C3)[C@H](C)[C@H]12 [Example 212] | 2 (≈ 3.28 µM) | 8 (≈ 13.1 µM) | 0.5 (≈ 0.82 µM) | 4 (≈ 6.56 µM) | 1 (≈ 1.64 µM) |
| CNCC(=O)N[C@H](C)[C@H]1C(=O)N2C(C(=O)O)=C(S[C@@H]3CN[C@H](C(=O)N4CC[C@H](N)C4)C3)[C@H](C)[C@H]12 [Example 129] | 32 (≈ 64.7 µM) | 8 (≈ 16.2 µM) | 4 (≈ 8.09 µM) | 8 (≈ 16.2 µM) | 32 (≈ 64.7 µM) |
| C[C@@H](NC(=O)C(F)F)[C@H]1C(=O)N2C(C(=O)O)=C(S[C@@H]3CN[C@H](C(=O)N4CC[C@H](NC(=O)CN)C4)C3)[C@H](C)[C@H]12 [Example 121] | 4 (≈ 7.16 µM) | 8 (≈ 14.3 µM) | 0.5 (≈ 0.895 µM) | 4 (≈ 7.16 µM) | 1 (≈ 1.79 µM) |
| C[C@@H](NC(=O)C(F)(F)CO)[C@H]1C(=O)N2C(C(=O)O)=C(S[C@@H]3CN[C@H](C(=O)N(C)C)C3)[C@H](C)[C@H]12 [Example 143] | 8 (≈ 16.3 µM) | 32 to 64 (≈ 65.2 to 130 µM) | 1 (≈ 2.04 µM) | 8 (≈ 16.3 µM) | 2 (≈ 4.08 µM) |
| C[C@@H](NC=N)[C@H]1C(=O)N2C(C(=O)O)=C(S[C@@H]3CN[C@H](C(=O)N(C)C)C3)[C@H](C)[C@H]12 [Example 48] | 1 (≈ 2.44 µM) | 8 (≈ 19.5 µM) | 0.5 (≈ 1.22 µM) | 64 (≈ 156 µM) | 16 (≈ 39.1 µM) |
| CNCC(=O)N[C@H](C)[C@H]1C(=O)N2C(C(=O)O)=C(S[C@@H]3CN[C@H](C(=O)N(CCN)CCO)C3)[C@H](C)[C@H]12 [Example 202] | 64 (≈ 125 µM) | 8 (≈ 15.6 µM) | 4 (≈ 7.8 µM) | 16 (≈ 31.2 µM) | 64 (≈ 125 µM) |
| C[C@@H](NC(=O)CN(C)C(=N)N)[C@H]1C(=O)N2C(C(=O)O)=C(S[C@@H]3CN[C@H](C(=O)N(C)C)C3)[C@H](C)[C@H]12 [Example 231] | 4 (≈ 8.07 µM) | 16 (≈ 32.3 µM) | 1 (≈ 2.02 µM) | 2 (≈ 4.04 µM) | 32 (≈ 64.6 µM) |
| C[C@@H](NC(=O)C(F)F)[C@H]1C(=O)N2C(C(=O)O)=C(S[C@@H]3CN[C@H](C(=O)N4CC[C@@H](CN)C4)C3)[C@H](C)[C@H]12 [Example 219] | 4 (≈ 7.76 µM) | 4 (≈ 7.76 µM) | 1 (≈ 1.94 µM) | 4 (≈ 7.76 µM) | 2 (≈ 3.88 µM) |
| C[C@@H](NC(=O)C(F)F)[C@H]1C(=O)N2C(C(=O)O)=C(S[C@@H]3CN[C@H](C(=O)N4CC[S+]([O-])CC4)C3)[C@H](C)[C@H]12 [Example 42] | 1 (≈ 1.87 µM) | 128 (≈ 239 µM) | 1 (≈ 1.87 µM) | 8 (≈ 15 µM) | 2 (≈ 3.74 µM) |
| COCC(=O)N[C@H](C)[C@H]1C(=O)N2C(C(=O)O)=C(S[C@@H]3CN[C@H](C(=O)N(C)C)C3)[C@H](C)[C@H]12 [Example 21] | 4 (≈ 8.8 µM) | > 128 | 2 (≈ 4.4 µM) | 4 to 16 (≈ 8.8 to 35.2 µM) | 2 (≈ 4.4 µM) |
| C[C@H]([C@H]1C(=O)N2C(C(=O)O)=C(SC3CN[C@H](C(=O)N(C)C)C3)[C@H](C)[C@H]12)n1cc(CN)nn1 (stereo partly shown) [Example 177] | 2 (≈ 4.31 µM) | 32 (≈ 69 µM) | 2 (≈ 4.31 µM) | 2 (≈ 4.31 µM) | 8 (≈ 17.3 µM) |
| CNCC(=O)N[C@H](C)[C@H]1C(=O)N2C(C(=O)O)=C(S[C@@H]3CN[C@H](C(=O)N4CCNCC4)C3)[C@H](C)[C@H]12 [Example 168] | 2 (≈ 4.04 µM) | 2 (≈ 4.04 µM) | 1 (≈ 2.02 µM) | 2 (≈ 4.04 µM) | 16 (≈ 32.3 µM) |
| CNCC(=O)N[C@H](C)[C@H]1C(=O)N2C(C(=O)O)=C(S[C@@H]3CN[C@H](C(=O)N4CC(N)C4)C3)[C@H](C)[C@H]12 [Example 189] | 32 (≈ 66.6 µM) | 16 (≈ 33.3 µM) | 4 (≈ 8.32 µM) | 8 (≈ 16.6 µM) | > 128 |
| C[C@@H](NC(=O)C(F)F)[C@H]1C(=O)N2C(C(=O)O)=C(S[C@@H]3CN[C@H](C(=O)N4CC[C@@H](NC(=O)CN)C4)C3)[C@H](C)[C@H]12 [Example 160] | 8 (≈ 14.3 µM) | 16 (≈ 28.6 µM) | 1 (≈ 1.79 µM) | 8 (≈ 14.3 µM) | 4 (≈ 7.16 µM) |
| COc1coc(CNC(=O)[C@@H]2C[C@H](SC3=C(C(=O)O)N4C(=O)[C@H]([C@@H](C)NC(=O)C(F)F)[C@H]4[C@H]3C)CN2)cc1=O [Example 137] | 8 (≈ 14 µM) | > 128 | 1 (≈ 1.75 µM) | 8 (≈ 14 µM) | 4 (≈ 7.01 µM) |
| CNCC(=O)N[C@H](C)[C@H]1C(=O)N2C(C(=O)O)=C(S[C@@H]3CN[C@H](C(=O)N4CC[N+](C)(CCN)CC4)C3)[C@H](C)[C@H]12 [Example 222] | 8 | 8 | 2 | 4 | 64 |
| C[C@@H](NC(=O)C(F)F)[C@H]1C(=O)N2C(C(=O)O)=C(S[C@@H]3CN[C@H](C(=O)N4CCNC[C@@H]4C)C3)[C@H](C)[C@H]12 [Example 161] | 8 (≈ 15.5 µM) | 8 (≈ 15.5 µM) | 0.5 (≈ 0.97 µM) | 4 (≈ 7.76 µM) | 0.5 (≈ 0.97 µM) |
| C[C@@H](NC(=O)CS(C)(=O)=O)[C@H]1C(=O)N2C(C(=O)O)=C(S[C@@H]3CN[C@H](C(=O)N(C)C)C3)[C@H](C)[C@H]12 [Example 78] | 2 (≈ 3.98 µM) | 128 (≈ 255 µM) | 1 (≈ 1.99 µM) | > 128 | 8 (≈ 15.9 µM) |
| C[C@@H](NC(=O)C(F)F)[C@H]1C(=O)N2C(C(=O)O)=C(S[C@@H]3CN[C@H](C(=O)N4CC[C@@H](NCC(N)=O)C4)C3)[C@H](C)[C@H]12 [Example 154] | 2 (≈ 3.58 µM) | 64 (≈ 115 µM) | 1 (≈ 1.79 µM) | 8 (≈ 14.3 µM) | 4 (≈ 7.16 µM) |
| C[C@H]([C@H]1C(=O)N2C(C(=O)O)=C(SC3CN[C@H](C(=O)N4CC[C@@H](N)C4)C3)[C@H](C)[C@H]12)n1cc(CO)nn1 (stereo partly shown) [Example 167] | 4 (≈ 7.91 µM) | 32 (≈ 63.3 µM) | 4 (≈ 7.91 µM) | 4 (≈ 7.91 µM) | 2 (≈ 3.96 µM) |
| COc1ccc(S(=O)(=O)N[C@H](C)[C@H]2C(=O)N3C(C(=O)O)=C(S[C@@H]4CN[C@H](C(=O)N(C)C)C4)[C@H](C)C23)cc1OC (stereo partly shown) [Example 9] | > 128 | > 128 | 128 (≈ 220 µM) | > 128 | 8 (≈ 13.7 µM) |
